Laboratory results published in patent US5550110A, “Endothelin Antagonists II” (Warner-Lambert Company, priority 1994, dated 1996).
Peptide text beside a SMILES is read from it.

How the values were obtained:
[1] = test system: CaCO-2 cells (human colon adenocarcinoma cell line); type: in vitro ADME
Procedure: For experiments, the cells were counted, then diluted to 2.5×10^5 cells/mL for planting (400 μL per well) onto Snapwell culture membranes with 2.5 mL media in the lower chamber. Media in the […] was changed every 2 to 3 days. Cells used for this series of experiments were between passage 38 and 91. 2-[N-Morpholino]ethanesulfonic acid (MES)+25 mM glucose was used as incubation buffer for all the experiments and all incubation solutions were prepared to an osmotic pressure of 280 to 300 milliosmoles. The concentration of the endothelin antagonist being studied (for all experiments) was 100 μM and another endothelin antagonist with similar HPLC characteristics (retention time 2-3 minutes from the ET antagonist being studied, and similar chemical characteristics) was used at a concentration of 25 μM as an internal standard to compensate for any injection error. Prior to the start of the experiment, the transepithelial electrical resistance (TEER) was measured for each Snapwell (in media) at three points of the membrane. […] The membranes were washed by swirling in 0.9% normal saline and mounted in the pretreated diffusion chambers [0.1 mg/mL human serum albumin for 1 to 2 hours at 37° C. with O2 bubbling followed by air drying at 37° C. overnight, then with 4.5 to 5.0 mL dosing solution (MES+glucose+^14 C-PEG-4000 (5000 dpm/50 μL)+drug) for 5 minutes and 4.5 to 5.0 mL MES+glucose rinse just before the experiment.] The apical (donor) side was filled with 4.5 to 5.0 mL dosing solution, the basolateral (receiver) side with MES+glucose. Samples were removed from the donor and receiver compartments over the course of the experiment and analyzed for ^14 C-PEG 4000 (cell membrane integrity) and endothelin content.

[2] = biological target: T1, endothelin receptor (ETB), rat cerebellar membranes (Rattus norvegicus, UniProt P21451); assay: Endothelin Receptor Binding Assay-B (ERBA-B), [125I]-ET-1 binding in rat cerebellar membranes; details: [125I]-ET-1 25 pM, read-out: ERRA-B IC50
T1 construct: thaw one aliquot of frozen rat cerebellar membranes (2 mg protein in 0.5 mL); from tissue; host or cells: rat cerebellum (membranes)
T1 sequence (P21451 27-442): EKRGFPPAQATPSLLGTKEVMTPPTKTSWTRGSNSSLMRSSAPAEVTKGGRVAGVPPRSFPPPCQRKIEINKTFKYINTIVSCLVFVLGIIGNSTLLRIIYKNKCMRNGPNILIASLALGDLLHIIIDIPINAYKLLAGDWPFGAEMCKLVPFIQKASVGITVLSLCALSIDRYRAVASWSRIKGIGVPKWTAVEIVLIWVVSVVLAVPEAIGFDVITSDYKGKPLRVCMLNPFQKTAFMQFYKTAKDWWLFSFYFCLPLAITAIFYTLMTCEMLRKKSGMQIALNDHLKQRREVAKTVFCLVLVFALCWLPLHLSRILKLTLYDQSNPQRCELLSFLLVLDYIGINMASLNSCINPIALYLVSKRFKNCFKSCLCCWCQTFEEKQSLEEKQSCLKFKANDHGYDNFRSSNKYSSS
Procedure: Endothelin Receptor Binding Assay-B (ERBA-B) [^125 I]-ET-1 Binding in Rat Cerebellar Membranes
The tissue is made up of 20 mM tris(hydroxymethyl)aminomethane hydrochloride (Trizma) buffer, 2 mM ethylenediaminetetra acetate, 100 μM phenylmethylsulfonyl fluoride.
First, thaw one aliquot of frozen rat cerebellar membranes (2 mg protein in 0.5 mL). Next, add 0.5 mL membrane aliquot to 4.5 mL cold tissue buffer, polytron at 7,500 revolutions per minute for 10 seconds. Finally, dilute tissue suspension 1/100 (0.1 mL suspension+9.9 mL tissue buffer), polytron again, and place ice.
Medium 199 with Hank's salts plus 25 mM Hepes+1 mg/mL bovine serum albumin.
Amersham [^125 I]-ET-1 (aliquots of 2×10^6 cpm per […] aliquot of [^125 I]-ET-1 with 5.2 mL dilution buffer, place on ice until use (final concentration will be 20,000 cpm per tube, or 25 pM).
Add 50 μL each of cold [^125 ]-ET-1 and competing ligand to tubes on ice. Mix in 150 μL of tissue to each tube, vortex briefly, then tap to force all liquids to bottom (total assay volume=250 μL). Then place the tubes in a 37° C. water bath for 2 hours.
Add 2.5 mL cold wash buffer (50 mM Trizma buffer) to each tube, filter, and then wash tube with additional 2.5 mL wash buffer and add to filter. Finally, wash filters with an additional 2.5 mL of cold wash buffer.
Count filters for radioactivity in gamma counter.

[3] = test system: ETA (rabbit femoral artery); details: ET-1 as agonist, endothelium-denuded rings
Description: (§1) In Vitro Antagonism of ET-1 Stimulated Vasoconstriction in the Rabbit Femoral Artery (ETA) and Sarafotoxin 6c Stimulated Vasoconstriction in the Rabbit Pulmonary Artery (ETB)
(§2) Male New Zealand rabbits were killed by cervical dislocation and exsanguination. Femoral and pulmonary arteries were isolated, cleaned of connective tissue, and cut into 4-mm rings. The endothelium was denuded by placing the rings over hypodermic tubing (32 guage for femoral rings and 28 guage for pulmonary rings, Small Parts, Inc, Miami, Fla.) and gently rolling them. Denuded rings were mounted in 20 mL organ baths containing Krebs-bicarbonate buffer (composition in mM: NaCl, 118.2; NaHCO3, 24.8; KCl, 4.6; MgSO4 7.H2 O, 1.2; KH2 PO4, 1.2; CaCl2.2H2 O; Ca--Na2 EDTA, 0.026; dextrose, 10.0), that was maintained at 37° C. and gassed continuously with 5% CO2 in oxygen (pH 7.4). Resting tension was adjusted to 3.0 g for femoral and 4.0 g pulmonary arteries; the rings were left for 90 minutes to equilibrate.

[4] = biological target: ETB (rabbit pulmonary artery) (Oryctolagus cuniculus, UniProt Q9N0W7)
Description: as §1, §2

ETB (rabbit pulmonary artery), sequence (Q9N0W7 27-441): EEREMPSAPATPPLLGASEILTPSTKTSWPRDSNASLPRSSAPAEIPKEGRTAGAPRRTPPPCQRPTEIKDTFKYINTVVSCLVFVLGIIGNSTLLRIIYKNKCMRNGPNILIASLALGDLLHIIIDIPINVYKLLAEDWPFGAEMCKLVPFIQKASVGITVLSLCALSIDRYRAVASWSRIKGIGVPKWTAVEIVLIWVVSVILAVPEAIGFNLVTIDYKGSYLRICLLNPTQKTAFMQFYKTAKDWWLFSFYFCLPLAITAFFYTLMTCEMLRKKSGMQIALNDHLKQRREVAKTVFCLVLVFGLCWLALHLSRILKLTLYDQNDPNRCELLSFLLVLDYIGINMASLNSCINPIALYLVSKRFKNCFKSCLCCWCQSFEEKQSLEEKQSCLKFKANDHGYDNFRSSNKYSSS

SMILES: CC[C@H](C)[C@H](NC(=O)[C@H](CC(=O)O)NC(=O)[C@H](CC(C)C)NC(=O)[C@H](NC(C)=O)C1c2ccccc2CCc2ccccc21)C(=O)N[C@H](C(=O)N[C@@H](Cc1c[nH]c2ccccc12)C(=O)O)[C@@H](C)CC [Example 1, Ac-D-Bhg-Leu-Asp-Ile-Ile-Trp] (HELM PEPTIDE1{[ac].[O=C([C@H](N[*:1])C1c2ccccc2CCc2ccccc21)[*:2]].L.D.I.I.W}$$$$V2.0)
- absorption in the gut suggested by CaCO-2 values [1]: 5-10%
- IC50 [2]: 19 nM
- pA2 Femoral [3]: 6.8
- Kb [4]: 79.4 nM

SMILES: CC[C@H](C)[C@H](NC(=O)[C@H](CC(=O)O)NC(=O)[C@H](CC(C)C)NC(=O)[C@H](NC(C)=O)C1c2ccccc2CCc2ccccc21)C(=O)N(C)[C@H](C(=O)N[C@@H](Cc1c[nH]c2ccccc12)C(=O)O)[C@@H](C)CC [Example 19, Ac-D-Bhg-Leu-Asp-Ile-N-MeIle-Trp] (HELM PEPTIDE1{[ac].[O=C([C@H](N[*:1])C1c2ccccc2CCc2ccccc21)[*:2]].L.D.I.[meI].W}$$$$V2.0)
- absorption in the gut suggested by CaCO-2 values [1]: 5-10%
- IC50 [2]: 40 nM
- pA2 Femoral [3]: 7.3
- Kb [4]: 251 nM
